Assay [1] concerns ERK2 phosphorylation (MAP kinase pathway) via PSMGFR region of MUC1. The experiment in a line: western blot of ERK2 phosphorylation upon MUC1* dimerization and small molecule competition. As to conditions: competitor small molecule present with anti-PSMGFR. The class given is cell-based. The source says:
FIG. 6 is a western blot of a competition experiment in which small molecules that bind to the PSMGFR region of MUC1 compete with anti-PSMGFR for binding to the site. […] The chemical formula for the competitor compound MN 9 referred to in this figure is
The western blot probe antibody is phospho-ERK2. FIG. 6 is a western blot of a competition experiment in which small molecules that bind to the PSMGFR region of MUC1 compete with anti-PSMGFR for binding to the site.
(In general: A western blot detects proteins with antibodies after separation by electrophoresis.)

For assay [2], the system named is H9 human embryonic stem cells. Description: human embryonic stem cell growth / live-dead assay on matrigel. The format is cell-based. As to conditions: for live stem cells when free peptide is added to monovalent anti-MUC1*: monovalent anti-MUC1* plus free MUC1* peptide vs no peptide. As to the method: The details are that H9 low passage number hESCs were grown over matrigel for 7 days. To one set of wells was added bivalent anti-PSMGFR; to a second set was added the monovalent anti-PSMGFR; and to a third set buffer was added as a control. The results were that the addition of monovalent anti-PSMGFR caused stem cells to die within 8 hours. Cells immediately rounded up and within hours floated to the top of the media. […] Colonies were larger and in general had less differentiated cells.
Based on the findings that MUC1* mediates growth in cancer cells, experiments were devised to show whether or not stem cell growth could be manipulated by altering the dimerization state of MUC1*. A set number of human embryonic stem cells, H9p55, were plated onto matrigel. Cells were treated with either: 1) the bivalent anti-MUC1* antibody (rabbit polyclonal antibody raised the PSMGFR sequence), which dimerizes the MUC1* portion of the receptor; 2) the monovalent form of this same antibody, which binds to a single MUC1* receptor and prevents dimerization; or 3) nothing added as a control. The most striking result was that nearly all the cells, to which the monovalent anti-MUC1* antibody was added, died within 8 hours of the treatment, see FIGS. 25 and 26. […] A complete reversal of the monovalent antibody induced cell death was not expected since the free peptide could also compete with the cell surface MUC1* receptor for binding to the activating ligand. […] Therefore, the experiment was repeated but the analysis was done in a manner that resultant cell numbers could be quantitated.
A given number of cells H9p55 were added to each well. Again, the cells were treated with either bivalent anti-MUC1*, monovalent anti-MUC1* or no antibody as a control and then counted on a cell counting instrument. The graph of FIG. 32 summarizes the results. Again, treatment with the monovalent anti-MUC1* antibody caused cell death within 8 hours. […] The graph of FIG. 33 gives the details of this experiment. […]

Assay [3] has as its system hematopoietic progenitor cells (CD34+CD38+). As to conditions: recombinant protein added; cited from earlier work.
In the next assay the test system is HEL cells. The note with it: recombinant human protein as GST fusion; cited from earlier work.
Assay [4] has as its system hematopoietic stem cells (CD34++CD38−). As to conditions: recombinant protein added; cited from earlier work.
Assay [5] has as its system MUC1*-positive cancer cells. The experiment in a line: growth of MUC1*-positive cancer cells with NM23. The format is cell-based.
For a further assay, the target named is T1, PSMGFR (MUC1*) peptide (Homo sapiens, UniProt P15941).
T1 sequence (P15941 1110-1154 limits assumed): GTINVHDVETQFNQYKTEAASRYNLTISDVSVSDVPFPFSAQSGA
The experiment in a line: immunoprecipitation with histidine-tagged PSMGFR (MUC1*) peptide and western blot with anti-NM23. As to conditions: T47D cancer cell extracts. The class given is binding. As to the method:
NM23 is the ligand that dimerizes and activates the MUC1* growth factor receptor. T47D cancer cell extracts were immunoprecipitated with magnetic beads that were pre-bound with histidine-tagged PSMGFR (MUC1*) peptide. The captured MUC1* binding species were then separated by SDS-PAGE. A western blot was then performed by probing the gel with an antibody that recognized NM23 H1.

In the next assay the test system is shed MUC1. As to conditions: breast cancer patients; cited from earlier work.

For `O=C(c1ccc2ccccc2c1)N1CCc2c([nH]c3ccccc23)C1c1ccc(C(F)(F)F)cc1` (stereo not drawn) [Compound MN 9], the “ERK2 phosphorylation in competition with anti-PSMGFR” value in assay [1] was “ERK2 phosphorylation is inhibited”.

For “MUC1* peptide: free peptide of the MUC1* (PSMGFR) extracellular sequence, competes with cell surface MUC1* (GTINVHDVETQFNQYKTEAASRYNLTISDVSVSDVPFPFSAQSGA; Fragment of MUC1 Growth Factor Receptor)”, the “stem cell count on addition of MUC1* peptide” value in assay [2] (bFGF added, with or without bivalent anti-MUC1*) is on record as “drop in the cell count”. The “live stem cells when free peptide is added to monovalent anti-MUC1*” value in assay [2] is on record as “more live cells”; in assay [2] (listed as MUC1* free peptide) it was “increase in the number of live cells”.

For the molecule NM23-H1: recombinant NM23-H1 protein, in assay [3], the “differentiation into granulocyte, macrophage, or granulocyte-macrophage colonies” value (“differentiation into granulocyte” for short) is on record as “reduced the differentiation”. Further, the “erythroid differentiation of HEL cells by TGF-β1” value in the assay with HEL cells is “block erythroid differentiation”. In assay [4], the “growth of hematopoietic stem cells” value is recorded as “did not induce growth”.

Regarding “NM23: natural ligand that dimerizes and activates the MUC1* growth factor receptor”, the “growth of MUC1*-positive cancer cells” value in assay [5] is “stimulate the growth”. Further, the “binding to MUC1* peptide (immunoprecipitated species reacts with anti-NM23)” value with PSMGFR (MUC1*) peptide was “ligand to MUC1”.

B1: G-CSF: granulocyte colony stimulating factor (protein, UniProt P09919 31-207, looked up)
Granulocyte …: TPLGPASSLPQSFLLKCLEQVRKIQGDGAALQEKLVSECATYKLCHPEELVLLGHSLGIPWAPLSSCPSQALQLAGCLSQLHSGLFLYQGLLQALEGISPELGPTLDTLQLDVADFATTIWQQMEELGMAPALQPTQGAMPAFASAFQRRAGGVLVASHLQSFLEVSYRVLRHLAQP
Regarding B1, in the assay with shed MUC1, the “serum levels of shed MUC1” value is on record as “greatly increased”.

B2: NM23-H2: recombinant NM23-H2 protein (protein, UniProt P22392 1-152, looked up)
Nucleoside diphosphate kinase …: MANLERTFIAIKPDGVQRGLVGEIIKRFEQKGFRLVAMKFLRASEEHLKQHYIDLKDRPFFPGLVKYMNSGPVVAMVWEGLNVVKTGRVMLGETNPADSKPGTIRGDFCIQVGRNIIHGSDSVKSAEKEISLWFKPEELVDYKSCAHDWVYE
For the molecule B2, the “differentiation into granulocyte” value in assay [3] is reported as “reduced the differentiation”. Moreover, the “erythroid differentiation of HEL cells by TGF-β1” value in the assay with HEL cells is listed as “block erythroid differentiation”. Besides, the “growth of hematopoietic stem cells” value in assay [4] is reported as “did not induce growth”.

B3: NM23-H3: recombinant NM23-H3 protein (protein, UniProt Q13232 1-169, looked up)
Nucleoside diphosphate kinase …: MICLVLTIFANLFPAACTGAHERTFLAVKPDGVQRRLVGEIVRRFERKGFKLVALKLVQASEELLREHYAELRERPFYGRLVKYMASGPVVAMVWQGLDVVRTSRALIGATNPADAPPGTIRGDFCIEVGKNLIHGSDSVESARREIALWFRADELLCWEDSAGHWLYE
In the case of B3, the “differentiation into granulocyte” value in assay [3] was “reduced the differentiation”. The “growth of hematopoietic stem cells” value in assay [4] is reported as “did not induce growth”.

These data come from US20090075926A1, “METHOD FOR IDENTIFYING AND MANIPULATING CELLS” (priority 2006, published 2009).
